Measured values from BindingDB's records for patent US20240140962 (Medshine Discovery, 2024).

Target: Serine/threonine-protein kinase PLK1 (Homo sapiens, UniProt P53350)
Experiment: Evaluation of PLK1 Kinase Activity In Vitro
Procedure: The 33P isotope-labeled kinase activity assay (Reaction Biology Corp) was used to determine the IC50 value to evaluate the inhibitory ability of the test compound to human PLK1 protein kinase.Buffer conditions: 20 mM HEPES (pH 7.5), 10 mM MgCl2, 1 mM EGTA, 0.01% Brij35, 0.02 mg/ml BSA, 0.1 mM Na3VO4, 2 mM DTT, 1% DMSOTest steps: At room temperature, the compounds to be tested were dissolved in DMSO to prepare a 10 mM solution for use. The substrate Casein was dissolved in a freshly prepared buffer (with a final concentration of 20 μM), and the tested PLK1 kinase (with a final concentration of 12 nM) was added thereto and mixed well. The acoustic wave pipetting system Echo 550 was used to add the mother solution of the test compound dissolved in DMSO to the above mixed reaction mixture according to the set final concentration gradient (the highest final concentration was 1 μM, 3-fold dilution, 10 gradients). After incubation at room temperature for 20 minutes, 33P-ATP (30 μM) was added, and after incubation at room temperature for 120 minutes, the reaction mixture was spotted on P81 ion exchange filter paper (Whatman #3698-915). After the filter paper was repeatedly washed with 0.75% phosphoric acid solution, the radioactivity of the phosphorylated substrate remaining on the filter paper was measured.

Serine/threonine-protein kinase PLK1, sequence (P53350 whole entry): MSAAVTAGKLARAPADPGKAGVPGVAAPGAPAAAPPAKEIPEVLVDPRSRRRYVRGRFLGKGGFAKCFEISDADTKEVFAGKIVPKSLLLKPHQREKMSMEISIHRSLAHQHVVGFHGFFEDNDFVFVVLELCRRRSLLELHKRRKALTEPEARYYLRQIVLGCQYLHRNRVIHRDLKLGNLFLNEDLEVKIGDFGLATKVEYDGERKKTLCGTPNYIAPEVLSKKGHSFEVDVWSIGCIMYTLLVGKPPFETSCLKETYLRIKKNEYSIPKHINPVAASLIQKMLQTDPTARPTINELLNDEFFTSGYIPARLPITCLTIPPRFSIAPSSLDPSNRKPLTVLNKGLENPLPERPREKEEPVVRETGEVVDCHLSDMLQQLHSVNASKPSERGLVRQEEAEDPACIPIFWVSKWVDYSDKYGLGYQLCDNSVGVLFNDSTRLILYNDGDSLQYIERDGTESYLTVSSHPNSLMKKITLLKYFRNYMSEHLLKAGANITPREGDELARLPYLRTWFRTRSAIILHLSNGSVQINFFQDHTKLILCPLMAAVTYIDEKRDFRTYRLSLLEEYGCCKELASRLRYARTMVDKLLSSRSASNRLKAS

SMILES	IC50
CSc1sc(C(N)=O)c2c1-c1nc(Nc3cc(N4CCNCC4)ccc3OC(F)(F)F)ncc1CC2 [US20240140962, Compound 7]	3 nM
COc1nnc(N2CCN(C)CC2)cc1Nc1ncc2c(n1)-c1c(SC)sc(C(N)=O)c1CC2 [US20240140962, Compound 17]	5.9 nM
CCOc1sc(C(N)=O)c2c1-c1nc(Nc3cc(N4CCN(C)CC4)ccc3OC(F)(F)F)ncc1CC2 [US20240140962, Compound 2]	4.2 nM
CN1CCN(c2ccc(OC(F)(F)F)c(Nc3ncc4c(n3)-c3c(C5CC5)sc(C(N)=O)c3CC4)c2)CC1 [US20240140962, Compound 16]	5.3 nM

Second part, the compound after the results:

IC50	SMILES
1.7 nM	CSc1sc(C(N)=O)c2c1-c1nc(Nc3cc(N4CCN(CCO)CC4)ccc3OC(F)(F)F)ncc1CC2 [US20240140962, Compound 8]
4 nM	CN1CCN(c2ccc(OC(F)(F)F)c(Nc3ncc4c(n3)-c3csc(C(N)=O)c3CC4)c2)CC1 [US20240140962, Compound 12]
2.8 nM	CN1CCN(c2ccc(OC(F)(F)F)c(Nc3ncc4c(n3)-c3c(-c5ccco5)sc(C(N)=O)c3CC4)c2)CC1 [US20240140962, Compound 20]
4.4 nM	CSc1sc(C(N)=O)c2c1-c1nc(Nc3cc(N4CCN(C)CC4)ccc3OC(F)(F)F)ncc1CC2 [US20240140962, Compound 1]
